{
  "source": "patent US9469652B2",
  "about": "“ERK inhibitors” (Eli Lilly and Company, priority 2014, dated 2016)",
  "key": {"[1]": {"tested_on": "human colorectal cancer cells HCT116", "assay": "Xenograft tumor model HCT116", "assay_type": "in vivo, female athymic nude mice", "details": "oral gavage; for Delta T/C % or Regr %: negative = regression", "procedure": "(§1) The purpose of this assay is to measure reduction in tumor volume in response to test compound administration. Expand human colorectal cancer cells HCT116 (ATCC, # CCL-247) in culture, harvest and inject 5×10e^6 cells in 200 μL of 1:1 HBSS+matrigel solution subcutaneously on to the rear right flank of female athymic nude mice (22-25 g, Harlan Laboratories). Expand human pancreatic cancer cells MIA PACA-2 (ATCC, # CRL-1420) or human non-small cell lung cancer cells CALU-6 (ATCC, #HTB-56) or human colorectal cancer cells COLO-205 (ATCC, #CCL-222) in culture, harvest and inject 5×10e^6 cells in 200 μL of 1:1 HBSS+matrigel solution subcutaneously on to the rear right flank of female athymic nude mice (22-25 g, Harlan Laboratories). Measure tumor growth and body weight twice per week beginning the seventh day after the implantation. When tumor sizes reach 200-400 mm^3, randomize animals and group into groups of eight to ten animals. Prepare test compound in an appropriate vehicle (vehicle: 1% HEC/0.25% Tween 80/0.05% Antifoam) and administer by oral gavage for 14 to 21 days. Tumor response is determined by tumor volume measurement performed twice a week during the course of treatment. Body weight is taken as a general measure of toxicity.\n(§2) A compound within the scope of invention is tested in this assay run substantially as above."}, "[2]": {"tested_on": "human pancreatic cancer cells MIA PACA-2", "assay": "Xenograft tumor model MIA PACA-2", "assay_type": "in vivo, female athymic nude mice", "details": "oral gavage; for Delta T/C % or Regr %: negative = regression", "procedure": "as §1, §2"}, "[3]": {"tested_on": "human non-small cell lung cancer cells NCI-H441 (KRAS_G12V)", "assay": "In vivo combination study, NCI-H441 NSCLC xenograft model", "details": "single agent", "procedure": "(§3) More specifically, the compound of Example 1 is tested in combination with either the pan-RAF inhibitor compound or the CDK4/6 inhibitor compound in HCT116, a KRAS mutant colorectal cancer xenograft model. Also, the compound of Example 1 is tested in combination with either the CDK4/6 inhibitor compound or DC101 in NCI-H441, A549, and NCI-H2122, KRAS mutant non-small cell lung cancer (NSCLC) xenograft models.\n(§4) Combination efficacy is also tested in three KRAS mutant NSCLC xenograft models including A549 (KRAS_G12S) in SCID mice as well as NCI-H441 (KRAS_G12V) and NCI-H2122 (KRAS_G12C) in athymic nude mice. Expand human non-small cell lung cancer cells NCI-H441 (ATCC, #CRL-5807) and NCI-H2122 (ATCC, #CRL-5985) in culture, harvest and inject 5×10e^6 cells in 200 μL of 1:1 HBSS+matrigel solution subcutaneously on to the rear right flank of female athymic nude mice (20-22 gm, Harlan Laboratories). Expand human non-small cell lung cancer cells A549 (ATCC, #CC1-185) in culture, harvest and inject 5×10e^6 cells in 200 μL of 1:1 HBSS+matrigel solution subcutaneously on to the rear right flank of female CB-17 SCID mice (18-20 gm, Taconic Farms). For all cell lines, measure tumor growth and body weight twice per week beginning the seventh day after the implantation. When average tumor sizes reach 200-300 mm^3, randomize animals and group into groups of five to seven animals. Prepare test compound in an appropriate vehicle (see below) and administer by oral gavage (compound of Example 1 and the CDK4/6 inhibitor compound) or intraperitoneally (DC101) for 21 to 28 days. Tumor response is determined by tumor volume measurement performed twice a week during the course of treatment. Vehicle used in these studies is 1% HEC/0.25% Tween® 80/0.05% Antifoam. The compound of Example 1 is formulated in 1% HEC/0.25% Tween® 80/0.05% Antifoam and the CDK4/6 inhibitor compound is formulated in 1% HEC in 25 mM sodium phosphate buffer, pH 2. […] In the same NCI-H441 xenograft model, DC101 in phosphate buffer is also administered intraperitoneally twice per week (BIW) as a single agent or in combination with the compound of Example 1, 50 mpk, QD for 28 days."}, "[4]": {"tested_on": "human non-small cell lung cancer cells CALU-6", "assay": "Xenograft tumor model CALU-6", "assay_type": "in vivo, female athymic nude mice", "details": "oral gavage; for Delta T/C % or Regr %: negative = regression", "procedure": "as §1, §2"}, "[5]": {"tested_on": "human non-small cell lung cancer cells NCI-H2122 (KRAS_G12C)", "assay": "In vivo combination study, NCI-H2122 NSCLC xenograft model", "parameters": "species or system female athymic nude mice", "details": "single agent", "procedure": "as §3, §4"}, "[6]": {"tested_on": "human colorectal cancer cells COLO-205", "assay": "Xenograft tumor model COLO-205", "assay_type": "in vivo, female athymic nude mice", "details": "oral gavage; for Delta T/C % or Regr %: negative = regression", "procedure": "as §1, §2"}, "[7]": {"tested_on": "human non-small cell lung cancer cells A549 (KRAS_G12S)", "assay": "In vivo combination study, A549 NSCLC xenograft model", "parameters": "species or system female CB-17 SCID mice", "details": "single agent", "procedure": "as §3, §4"}},
  "data": [
    {"smiles": "Cn1nccc1Nc1nccc(-c2cc3c(s2)C(C)(C)N(CCN2CCOCC2)C3=O)n1", "note": "[Example 1, 6,6-Dimethyl-2-{2-[(1-methyl-1H-pyrazol-5-yl)amino]pyrimidin-4-yl}-5-[2-(morpholin-4-yl)ethyl]-5,6-dihydro-4H-thieno[2,3-c]pyrrol-4-one]", "values": [
      {"measurement": "TGI %", "setting": "[1]; 25 mg/kg QD", "value": 108, "unit": "%"},
      {"measurement": "Delta T/C % or Regr %", "setting": "[1]; 25 mg/kg QD", "value": "−8", "unit": "%"},
      {"measurement": "TGI %", "setting": "[1]; 50 mg/kg QD", "value": 89, "unit": "%"},
      {"measurement": "Delta T/C % or Regr %", "setting": "[1]; 50 mg/kg QD", "value": 11, "unit": "%"},
      {"measurement": "TGI %", "setting": "[1]; 100 mg/kg QD", "value": 125, "unit": "%"},
      {"measurement": "Delta T/C % or Regr %", "setting": "[1]; 100 mg/kg QD", "value": "−25", "unit": "%"},
      {"measurement": "TGI %", "setting": "[2]; 12.5 mg/kg QD", "value": 68, "unit": "%"},
      {"measurement": "Delta T/C % or Regr %", "setting": "[2]; 12.5 mg/kg QD", "value": 32, "unit": "%"},
      {"measurement": "TGI %", "setting": "[2]; 25 mg/kg QD", "value": 98, "unit": "%"},
      {"measurement": "Delta T/C % or Regr %", "setting": "[2]; 25 mg/kg QD", "value": 2, "unit": "%"},
      {"measurement": "TGI %", "setting": "[2]; 50 mg/kg QD", "value": 122, "unit": "%"},
      {"measurement": "Delta T/C % or Regr %", "setting": "[2]; 50 mg/kg QD", "value": "−22", "unit": "%"},
      {"measurement": "TGI %", "setting": "[2]; 100 mg/kg QD", "value": 166, "unit": "%"},
      {"measurement": "Delta T/C % or Regr %", "setting": "[2]; 100 mg/kg QD", "value": "−66", "unit": "%"},
      {"measurement": "Regression %", "setting": "[3]; 50 mg/kg QD, oral, 28 days", "value": 1, "unit": "%"},
      {"measurement": "tumor growth inhibition", "setting": "[3]; 50 mpk", "value": 101, "unit": "%"},
      {"measurement": "TGI %", "setting": "[4]; 12.5 mg/kg QD", "value": 78, "unit": "%"},
      {"measurement": "Delta T/C % or Regr %", "setting": "[4]; 12.5 mg/kg QD", "value": 22, "unit": "%"},
      {"measurement": "TGI %", "setting": "[4]; 25 mg/kg QD", "value": 86, "unit": "%"},
      {"measurement": "Delta T/C % or Regr %", "setting": "[4]; 25 mg/kg QD", "value": 14, "unit": "%"},
      {"measurement": "TGI %", "setting": "[4]; 50 mg/kg QD", "value": 131, "unit": "%"},
      {"measurement": "Delta T/C % or Regr %", "setting": "[4]; 50 mg/kg QD", "value": "−31", "unit": "%"},
      {"measurement": "TGI %", "setting": "[4]; 100 mg/kg QD", "value": 177, "unit": "%"},
      {"measurement": "Delta T/C % or Regr %", "setting": "[4]; 100 mg/kg QD", "value": "−77", "unit": "%"},
      {"measurement": "Delta T/C %", "setting": "[5]; 50 mg/kg QD, oral, 28 days", "value": 59, "unit": "%"},
      {"measurement": "tumor growth inhibition", "setting": "[5]; 50 mpk", "value": 41, "unit": "%"},
      {"measurement": "TGI %", "setting": "[6]; 12.5 mg/kg QD", "value": 119, "unit": "%"},
      {"measurement": "Delta T/C % or Regr %", "setting": "[6]; 12.5 mg/kg QD", "value": "−19", "unit": "%"},
      {"measurement": "TGI %", "setting": "[6]; 25 mg/kg QD", "value": 132, "unit": "%"},
      {"measurement": "Delta T/C % or Regr %", "setting": "[6]; 25 mg/kg QD", "value": "−32", "unit": "%"},
      {"measurement": "TGI %", "setting": "[6]; 100 mg/kg QD", "value": 176, "unit": "%"},
      {"measurement": "Delta T/C % or Regr %", "setting": "[6]; 100 mg/kg QD", "value": "−76", "unit": "%"},
      {"measurement": "Delta T/C %", "setting": "[7]; 50 mg/kg QD, oral, 28 days", "value": 9, "unit": "%"},
      {"measurement": "tumor growth inhibition", "setting": "[7]; 50 mpk", "value": 91, "unit": "%"}
    ]}
  ]
}
